According to PubChem BioAssay (NCI):
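Step 1: Grow cells in 96-well plates. Step 2: Expose to compound for 48 hours at 5 concentrations. Step 3: Interpolate endpoints linearly; if unreached, use highest concentration. At the GI50, growth is halved. TGI: total growth inhibition.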

What was measured:
Experiment in all cases: NCI tumour cell line growth inhibition, 48 h
EKVX NSCLC = test system: EKVX NSCLC
HOP-92 NSCLC = test system: HOP-92 NSCLC
RXF 393 renal = test system: RXF 393 renal
TK-10 renal = test system: TK-10 renal
SK-MEL-5 melanoma = test system: SK-MEL-5 melanoma
SK-MEL-28 melanoma = test system: SK-MEL-28 melanoma
CCRF-CEM leukemia = test system: CCRF-CEM leukemia
SK-MEL-2 melanoma = test system: SK-MEL-2 melanoma
LOX IMVI melanoma = test system: LOX IMVI melanoma
SR leukemia = test system: SR leukemia

| SMILES | GI50 (EKVX NSCLC) | TGI (EKVX NSCLC) | GI50 (HOP-92 NSCLC) | TGI (HOP-92 NSCLC) | GI50 (RXF 393 renal) | TGI (RXF 393 renal) | GI50 (TK-10 renal) | TGI (TK-10 renal) | GI50 (SK-MEL-5 melanoma) | TGI (SK-MEL-5 melanoma) | GI50 (SK-MEL-28 melanoma) | TGI (SK-MEL-28 melanoma) | GI50 (CCRF-CEM leukemia) | TGI (CCRF-CEM leukemia) | GI50 (SK-MEL-2 melanoma) | TGI (SK-MEL-2 melanoma) | TGI (LOX IMVI melanoma) | TGI (SR leukemia) | GI50 (SR leukemia) | GI50 (LOX IMVI melanoma) |
| --- | --- | --- | --- | --- | --- | --- | --- | --- | --- | --- | --- | --- | --- | --- | --- | --- | --- | --- | --- | --- |
| C#CCOc1cccc(Nc2ncnc3c2ncn3C2CCN(C(=O)CCl)C2)c1 (centres undefined) | 26.1 µM | 74.2 µM | 19.1 µM | 39.6 µM | 17.1 µM | 36.6 µM | 17.1 µM | 31.7 µM | 17.2 µM | 34.2 µM | 23 µM | 53.9 µM | 4.18 µM | 26.3 µM | 25.7 µM | 94.9 µM |  |  |  |  |
| CCc1ccccc1NC(=O)C1=C(C)NC(C)=C(C(=O)Nc2ccccc2CC)C1c1ccc(NC(C)=O)cc1 |  | > 100 µM |  | 90.6 µM |  | 65 µM |  | > 100 µM |  | > 100 µM |  | 52.9 µM |  | 65.8 µM |  | 70.1 µM | 44.2 µM |  |  |  |
| CCCCCC/C=C\CCCCCCCCCc1c(O)c(OC)cc(O)c1CN(C)C |  | 23.6 µM |  |  |  |  |  | 28.8 µM |  | 18.6 µM |  | 28.2 µM |  | 2.87 µM |  | 40.1 µM | > 100 µM | 4.23 µM |  |  |
| O/N=C1/C(=C/c2ccccc2)CCCC1C(NO)c1ccccc1 (centres undefined) |  | > 100 µM |  | > 100 µM |  | > 100 µM |  | > 100 µM |  |  |  | > 100 µM |  |  |  | > 100 µM | > 100 µM |  |  |  |
| COC(=O)NN=C1C(C)(C)C(=NNC(=O)OC)C1(C)C |  | > 100 µM |  | > 100 µM |  | > 100 µM |  | > 100 µM |  | > 100 µM |  | > 100 µM |  | > 72.3 µM |  | > 100 µM | > 50.9 µM |  |  |  |
| CN(C)CCN1C(=O)c2cccc3c(-c4ccc5ncn(C6CCCCC6)c5c4)ccc(c23)C1=O | 2.05 µM | 7.73 µM | 1.79 µM | 6.45 µM | 1.35 µM | 2.96 µM | 2.14 µM | 12.6 µM | 1.44 µM | 2.85 µM | 2.18 µM | 5.66 µM | 1.84 µM | 7.22 µM | 2.19 µM | 7.32 µM |  | 5.47 µM | 0.496 µM |  |
| C=C(C)C(=O)N1c2ccc(OC)cc2CC1C(=O)OCC (centres undefined) |  | > 100 µM |  |  |  |  |  | > 100 µM |  | > 100 µM |  | > 100 µM |  | > 100 µM |  | > 100 µM |  | > 100 µM |  |  |
| CC(=O)Oc1cc(OC(C)=O)c2cc3c(cc2c1OC(C)=O)C(=O)C1(CCCC1)C3=O |  | 38 µM |  | 28.6 µM |  | 31.3 µM |  | 31.3 µM |  |  |  | 31.7 µM |  |  |  |  | 33.5 µM |  |  |  |
| CC(C)(C)n1cc(-c2ccnc(NCCCNS(=O)(=O)c3ccc(Cl)cc3)c2)c(-c2cccc(O)c2)n1 | 2.04 µM | 5.36 µM | 1.49 µM | 3.33 µM | 1.46 µM | 2.99 µM | 2.38 µM | 5.93 µM | 1.44 µM | 2.76 µM | 1.57 µM | 3.06 µM | 2.13 µM | 7.85 µM | 1.92 µM | 3.89 µM | 3.15 µM |  |  | 1.73 µM |
| COC(=O)C1=C2CO[C@@H]3C[C@H]4C(C)(C)CCC[C@]4(C)C(=CC1)[C@]23C | 45.5 µM | > 100 µM | 8.2 µM | 44.7 µM | 50.9 µM | > 100 µM | 42.8 µM | > 100 µM | 20.8 µM | 43.2 µM | 45.3 µM | > 100 µM | 21.6 µM | 46.4 µM |  |  | > 100 µM |  |  | 36.4 µM |
| ClC1=C(Cl)C(Cl)=C(Cl)C1=Cc1ccc(Cl)cc1Cl | 0.523 µM | 4.37 µM | 0.633 µM | 2.56 µM | 0.215 µM | 0.477 µM |  |  | 1.04 µM | 2.26 µM | 0.567 µM | 2.8 µM | 0.352 µM | 3.98 µM | 1.51 µM | 4.49 µM | 0.384 µM |  |  | 0.184 µM |
| Cc1cc(S(=O)(=O)Nc2nc3ccsc3c(=O)n2Cc2ccccc2)c(S)cc1Cl | 21.8 µM | 77.3 µM | 87.6 µM | > 100 µM | 44 µM | > 100 µM | 29.7 µM | 91.1 µM | 12.5 µM | 34.2 µM | 25 µM | 57.2 µM | 34 µM | > 100 µM |  |  | 65.3 µM |  |  | 31.1 µM |
| CCCCCCCCCCCCCCCCCCOCC1(COP(=O)([O-])OCC[N+](C)(C)C)CCCO1 (centres undefined) |  |  |  | 6.09 µM |  | 1.89 µM |  | 3.54 µM |  | 27.7 µM |  | 32.2 µM |  | 11.6 µM |  | 22.8 µM | 19.3 µM |  |  |  |
| CC(C)(C)[Si](Nc1ccccc1)(c1ccccc1)c1ccccc1 |  | 30.3 µM |  | 28.3 µM |  | 26.5 µM |  | 28 µM |  | 34.2 µM |  | 32 µM |  | 39.7 µM |  | 35.8 µM | 26.1 µM |  |  |  |
| CC(=O)[CH-]C(=O)c1ccccc1.CC(=O)[CH-]C(=O)c1ccccc1.CC[O-].O=C1C=C([O-])C(=O)c2ccccc21.[Ti+4] | 25.9 µM | > 100 µM | 26.2 µM | 82.8 µM | > 100 µM | > 100 µM |  |  | 14 µM | > 100 µM | > 100 µM | > 100 µM | 21 µM | > 100 µM | 9.07 µM | 86.3 µM | > 100 µM |  |  | 20 µM |
| CO[C@H]1/C=C/C[C@H](C)[C@@H](C)S(=O)(=O)NC(=O)c2ccc3c(c2)N(C[C@@H]2CC[C@H]21)C[C@@]1(CCCc2cc(Cl)ccc21)CO3 | 1.91 µM | 6.76 µM | 1.55 µM | 3.4 µM |  |  | 2.8 µM | 11.1 µM | 1.61 µM | 3.15 µM | 2.61 µM | 8.04 µM | 1.3 µM | 5.03 µM | 0.321 µM | 1.43 µM | 3.41 µM | 12.2 µM | 0.67 µM | 1.84 µM |
| CN(C)NC(=S)NC12CC3CC(CC(C3)C1)C2 |  | > 100 µM |  | > 100 µM |  | > 100 µM |  | > 100 µM |  | > 100 µM |  | > 100 µM |  | > 100 µM |  | > 100 µM | > 100 µM |  |  |  |
| C/C(CC(=O)Nc1ccc(NC(=O)/C(C)=N/NS(=O)(=O)c2ccc(C)cc2)cc1)=N\NS(=O)(=O)c1ccc(C)cc1 |  | > 100 µM |  | > 100 µM |  | > 100 µM |  | > 100 µM |  | > 100 µM |  | > 100 µM |  |  |  | > 100 µM | > 100 µM |  |  |  |
